{
  "source": "paper PMC11048566",
  "about": "“The Development of a Regulator of Human Serine Racemase for N-Methyl-D-aspartate Function” (Biomedicines, 2024)",
  "key": {"[1]": {"test_system": "MK-801-induced hyperactivity", "assay": "Open field test in MK-801-treated mice", "format": "in vivo, C57BL/6J male mice", "details": "oral gavage 20 min before 0.2 mg/kg MK-801 IP; p < 0.001, n = 8", "procedure": "(§1) For behavioral studies, α12G was dissolved in 35% PEG-400 and administrated by oral gavage 20 min prior to the MK-801 insult. MK-801 (Sigma-Aldrich, St. Louis, MO, USA) was administrated via intraperitoneal (IP) injection 20 min prior to the behavioral tests, with the dosage of 0.2 mg/kg for the open field test and novel object recognition test and 0.3 mg/kg for the prepulse inhibition test.\nC57BL/6J male mice were randomly assigned into six groups, 7–12 mice per group, (1) saline control, (2) MK-801, (3) 1 mg/kg α12G + MK-801, (4) 3 mg/kg α12G + MK-801, (5) 10 mg/kg α12G + MK-801, and (6) 30 mg/kg α12G + MK-801. The mice were placed in a Plexiglas cage (37.5 × 21.5 × 18 cm), and their spontaneous locomotor activities were measured for 60 min using a Photobeam Activity System (PAS) open field (San Diego Instruments, San Diego, CA, USA). The total photo beam breaks of each mouse were measured as an index of locomotor activity."}, "[2]": {"test_system": "MK-801-induced memory impairment", "assay": "Novel object recognition test in MK-801-treated mice", "format": "in vivo, C57BL/6J male mice", "details": "10 mg/kg oral, 0.2 mg/kg MK-801 IP; p < 0.01, n = 8", "procedure": "as §1\nC57BL/6J male mice were randomly assigned into five groups, 6–8 mice per group, (1) saline control, (2) MK-801, (3) 1 mg/kg α12G + MK-801, (4) 3 mg/kg α12G + MK-801, and (5) 10 mg/kg α12G + MK-801. A novel object recognition test (NOR) was conducted in a square chamber (40 × 40 × 40 cm) under 15–20 lux light intensity, and a digital camera was used to record the behaviors. The test consisted of two sessions. In session I, mice were allowed to explore the chamber with two identical objects (yellow square Lego bricks) for 5 min and were then moved to the home cage for 5 min. In session II, mice were allowed to explore the chamber with one object kept the same (familiar object) and the other replaced with a novel object (blue circular bottle cap) for 10 min. The interaction of mice with both the objects (familiar vs. novel) was recorded, and the discrimination index was calculated with the following formula:Discrimination index = Time (novel object) − Time (familiar object)/Total exploring time"}, "[3]": {"molecular_target": "D-amino acid oxidase (DAAO) (Homo sapiens, UniProt P14920)", "sequence (P14920 whole entry, species assumed)": "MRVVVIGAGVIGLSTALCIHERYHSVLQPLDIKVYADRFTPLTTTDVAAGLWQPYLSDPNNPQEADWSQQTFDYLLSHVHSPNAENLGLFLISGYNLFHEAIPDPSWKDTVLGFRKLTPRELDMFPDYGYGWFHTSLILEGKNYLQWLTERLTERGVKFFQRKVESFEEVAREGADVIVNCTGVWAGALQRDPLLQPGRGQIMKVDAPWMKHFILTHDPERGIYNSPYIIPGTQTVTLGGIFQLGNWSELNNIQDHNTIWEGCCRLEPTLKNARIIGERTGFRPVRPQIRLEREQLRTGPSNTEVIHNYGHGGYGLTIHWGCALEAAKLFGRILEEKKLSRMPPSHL", "assay": "DAAO enzymatic assay", "format": "biochemical", "details": "5 mM D-serine, pH 8.5", "procedure": "A reaction mixture for the DAAO assay, with a final volume of 100 µL was made with 1 µL 2 times serially diluted α12G (4 µM to 7.8 nM), 45 µM FAD, 10 units of HRP, 60 ng DAAO, 10 mM Amplex Red^TM, 5 mM D-serine, and 100 mM Tris HCl (pH = 8.5). All reactions were performed in duplicates. The fluorescence was detected by a fluorometric meter (TECAN Infinite 200). The racemization percentage was calculated as follows: activity % = (Fsample, 20 min − Fsample, 0 min)/(Fblank, 20 min − Fblank, 0 min) × 100%."}, "[4]": {"test_system": "MK-801-induced PPI deficit", "assay": "Prepulse inhibition test in MK-801-treated mice", "format": "in vivo, C57BL/6J male mice", "details": "1 mg/kg oral, 0.3 mg/kg MK-801 IP; PPI 6 and PPI 10; p < 0.05, n = 14", "procedure": "as §1\nC57BL/6J male mice were randomly assigned into five groups, 6–21 mice per group, (1) saline control, (2) MK-801, (3) 1 mg/kg α12G + MK-801, (4) 3.5 mg/kg α12G + MK-801, and (5) 10 mg/kg α12G + MK-801. Prepulse inhibition (PPI), a measurement of sensorimotor gating, served as a biomarker of schizophrenia. Using the SR-LAB startle apparatus (San Diego Instruments, San Diego, CA, USA), the PPI ratio with startle response was elicited by various acoustic stimuli. Each C57BL/6J male mouse was placed in an acrylic cylinder in a dark and sound-insulated chamber. With a constant 65 dB background noise, the session comprised a 5 min acclimation period followed by 4 blocks including a total of 64 trials. […] The ratio of PPI was calculated from the startle response by the following formula: PPI % = 100 × [(PA score) − (pp-P score)]/(PA score), while the PA score was averaged from PA values in the two middle blocks."}, "[5]": {"molecular_target": "T1, hSR (Homo sapiens, UniProt Q9GZT4)", "T1 construct": "6xHis (C); made in house; host or cells: E. coli BL21 (pET42b-hSR)", "T1 sequence (Q9GZT4 1-340)": "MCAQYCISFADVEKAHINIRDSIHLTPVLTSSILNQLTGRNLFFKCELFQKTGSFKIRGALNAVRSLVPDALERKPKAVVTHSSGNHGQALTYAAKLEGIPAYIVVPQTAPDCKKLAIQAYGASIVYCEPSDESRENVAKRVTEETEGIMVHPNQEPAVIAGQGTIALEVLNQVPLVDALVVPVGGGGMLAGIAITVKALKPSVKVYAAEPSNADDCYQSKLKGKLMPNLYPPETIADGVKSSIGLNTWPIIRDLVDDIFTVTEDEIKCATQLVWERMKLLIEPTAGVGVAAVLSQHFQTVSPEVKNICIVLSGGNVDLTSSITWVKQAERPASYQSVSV", "assay": "Intrinsic tryptophan fluorescence (ITF) binding assay", "details": "0.25 mM ATP, Hill slope model", "procedure": "First, 30 µL of 2 µM hSR protein was added into 270 µL buffer (100 mM Tris-HCl, pH 8.0, 1 mM MgCl2, 0.25 mM ATP, 50 µM PLP, 10% DMSO) with ligand and subsequently reacted for 20 min at room temperature. All samples were measured in triplicates and excited at 282 nm. The emission spectra were measured with a 5 nm bandwidth resolution at 300 to 400 nm wavelengths by a Varioskan™ LUX multimode microplate reader (Thermo Fisher Scientific, Lagoas Park, Porto Salvo, Portugal). The fluorescence intensity collected at 304 nm was analyzed using GraphPad Prism 8 software (Dotmatics, Boston, MA, USA). The dissociation constant (Kd) was derived by specific binding with the Hill slope model: Y = Bmax × X^n/(Kd^n + X^n), with X being the ligand concentration, maximum number of binding sites (Bmax) being the maximum specific binding, and n being Hill slope.\nThe Hill coefficient (n) of 1.28 is close to n = 1, indicating a noncooperative binding."}},
  "note": "pIC50, pKd: −log10 of the molar value.",
  "data": [
    {"smiles": "O=C(Oc1cc(C(=O)Oc2cc(C(=O)O[C@H]3OC[C@@H](OC(=O)c4cc(O)c(O)c(OC(=O)c5cc(O)c(O)c(OC(=O)c6cc(O)c(O)c(O)c6)c5)c4)[C@H](OC(=O)c4cc(O)c(O)c(OC(=O)c5cc(O)c(O)c(OC(=O)c6cc(O)c(O)c(O)c6)c5)c4)[C@H]3OC(=O)c3cc(O)c(O)c(OC(=O)c4cc(O)c(O)c(OC(=O)c5cc(O)c(O)c(O)c5)c4)c3)cc(O)c2O)cc(O)c1O)c1cc(O)c(O)c(O)c1", "note": "[α12G, (2R,3R,4S,5R)-tetrahydro-2H-pyran-2,3,4,5-tetrayl tetrakis(3-((3,4-dihydroxy-5-((3,4,5-trihydroxybenzoyl)oxy)benzoyl)ox)-4,5-dihydroxybenzoate)]", "values": [
      {"measurement": "Effect on MK-801-induced hyperactivity (locomotor activity)", "setting": "[1]", "value": "alleviated the MK-801-induced hyperactivity"},
      {"measurement": "Effect on MK-801-induced memory impairment (novel object recognition)", "setting": "[2]", "value": "attenuated this MK-801-induced memory impairment"},
      {"measurement": "pIC50", "setting": "[3]", "value": 6.80},
      {"measurement": "Effect on PPI deficits", "setting": "[4]", "value": "significantly alleviate PPI deficits"},
      {"measurement": "Bmax", "setting": "[5]", "value": 96.86, "unit": "fmol/mg"},
      {"measurement": "pKd", "setting": "[5]; read-out: binding affinity (Kd)", "value": 6.62}
    ]}
  ]
}
